Test [1] deals with Drechslera graminea (syn. Helminthosporium gramineum). The experiment in a line: Drechslera graminea test (barley) / seed treatment. The settings on record: dry seed dressing of infected barley seed; evaluation for stripe disease symptoms ca. 3 weeks after sowing; compared with the prior-art comparison substances. Type of test: in vivo. The text has this: Drechslera graminea-Test (Gerste) / Saatgutbehandlung (syn. Helminthosporium gramineum)
Die Anwendung der Wirkstoffe erfolgt als Trockenbeizmittel. Sie werden zubereitet durch Abstrecken des jeweiligen Wirkstoffes mit Gesteinsmehl zu einer feinpulvrigen Mischung, die eine gleichmäßige Verteilung auf der Saatgutoberfläche gewährleistet.
Zur Beizung schüttelt man das infizierte Saatgut 3 Minuten lang mit dem Beizmittel in einer verschlossenen Glasflasche.
Das Saatgut setzt man in gesiebter, feuchter Standarderde eingebettet, in verschlossenen Petrischalen im Kühlschrank 10 Tage lang einer Temperatur von 4°C aus. Dabei wird die Keimung der Gerste und gegebenenfalls auch der Pilzsporen eingeleitet. Anschließend sät man die vorgekeimte Gerste mit 2 x 50 Korn 3 cm tief in eine Standarderde und kultiviert sie im Gewächshaus bei einer Temperatur von ca. 18°C in Saatkästen, die täglich 15 Stunden dem Licht ausgesetzt werden.
Ca. 3 Wochen nach der Aussaat erfolgt die Auswertung der Pflanzen auf Symptome der Streifenkrankheit.

A further test deals with Podosphaera leucotricha. The test can be described thus: Podosphaera test (apple) / protective. The class given is in vivo. The settings on record: protective spray on young apple plants; evaluation 9 days after inoculation; compared with the prior-art comparison substances. An excerpt:
Podosphaera-Test (Apfel) / protektiv
• Lösungsmittel: 4,7 Gewichtsteile Aceton • Emulgator: 0,3 Gewichtsteile Alkylarylpolyglykolether
Zur Herstellung einer zweckmäßigen Wirkstoffzubereitung vermischt man 1 Gewichtsteil Wirkstoff mit den angegebenen Mengen Lösungsmittel und Emulgator und verdünnt das Konzentrat mit Wasser auf die gewünschte Konzentration.
Zur Prüfung auf protektive Wirksamkeit bespritzt man jungePflanzen mit der Wirkstoffzubereitung bis zur Tropfnässe. Nach Antrocknen des Spritzbelages werden die Pflanzen durch Bestäuben mit Konidien des Apfelmehltauerregers (Podosphaera leucotricha) inokuliert.
Die Pflanzen werden dann im Gewächshaus bei 23°C und einer relativen Luftfeuchtigkeit von ca. 70 % aufgestellt.
9 Tage nach der Inokulation erfolgt die Auswertung.

In the case of `Cl.FC(F)(F)c1cc(Cl)ccc1C1(Cn2ccnc2)OCCO1` [Beispiel 1, 2-(4-Chlor-2-trifluormethyl)-phenyl-2-(imidazol-1-yl)-methyl-1,3-dioxolan-hydrochlorid], the Wirksamkeit result is given as “deutliche überlegenheit in der Wirksamkeit gegenüber dem Stand der Technik” in test [1] and “deutliche Überlegenheit in der Wirksamkeit gegenüber dem Stand der Technik” with Podosphaera leucotricha.
